Laboratory results taken from patent US20220265834A1, “BCL-2 PROTEIN INHIBITORS” (Recurium IP Holdings, LLC, priority 2019, published 2022).

Key:
Format in all cases: cell-based
MOLT-4 cells = assay: MOLT-4 Cell Proliferation Assay (CellTiter-Glo Luminescent Cell Viability Assay); details: Homo sapiens, 72 h incubation, read-out: MOLT-4 (nM) CTG IC50
Method: Cell proliferation was measured using the CellTiter-Glo® Luminescent Cell Viability Assay. The assay involved the addition of a single reagent (CellTiter-Glo® Reagent) directly to cells cultured in serum-supplemented medium. MOLT-4 cells (ATCC, CRL-1582) were cultured according to ATCC recommendations and were seeded at 50,000 cells per well.
Each compound evaluated was prepared as a DMSO stock solution (10 mM). Compounds were tested in duplicate on each plate, with a 10-point serial dilution curve (1:3 dilution). The highest compound concentration was 10 μM (final), with a 0.1% final DMSO concentration. Plates were then incubated at 37° C., 5% CO2 for 72 h, cell plates were equilibrated at rt for approximately 30 mins. An equi-volume amount of CellTiter-Glo® Reagent (100 μL) was added to each well. Plates were mixed for 2 mins on an orbital shaker to induce cell lysis and then incubated at rt for 10 mins to stabilize the luminescent signal. Luminescence was recorded using a Envision plate reader according to CellTiter-Glo protocol. IC50 of each compound was calculated using GraphPad Prism by nonlinear regression analysis.

Bcl-xL [1] = target: T1, Bcl-xL (Homo sapiens, UniProt Q07817); assay: Protein degradation assay in MOLM-13 cells (Western blot); details: for Bcl-xL degradation in MOLM-13 cells: increasing concentrations, 24 hours, FIG. 6; for Bcl-xL degradation with proteasome inhibitor MG132 in MOLM-13 cells: pretreated with 1 μM MG132 for 1 hour, then 1 μM compound, FIG. 7
T1 sequence (Q07817 whole entry): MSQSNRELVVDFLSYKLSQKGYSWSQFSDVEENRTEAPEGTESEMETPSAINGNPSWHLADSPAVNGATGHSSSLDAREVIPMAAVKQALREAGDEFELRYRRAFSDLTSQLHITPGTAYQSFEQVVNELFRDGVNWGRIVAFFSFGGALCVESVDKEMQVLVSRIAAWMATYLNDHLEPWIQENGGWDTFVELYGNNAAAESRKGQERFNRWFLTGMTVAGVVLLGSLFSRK
Method: (§1) MOLT-4 (ATCC, CRL-1582) (FIGS. 4, 5) were incubated with vehicle or 100 nM concentrations of the indicated compounds for 16 hours. MOLM-13 (DSMZ, ACC554) (FIG. 6,7) cells were incubated with vehicle or increasing concentrations of the indicated compound for 24 hours. For proteasome inhibition, MOLM-13 cells were pretreated with 1 μM of MG132 for 1 hour before the addition of 1 μM of the indicated compounds. After treatment, the cells were harvested in RIPA lysis buffer supplemented with 1% Phosphatase Inhibitor and Protease Inhibitor Cocktail. An equal amount of protein (10 μg/lane) from each cell extract was resolved on a 4-12% Bis-Tris gel. Proteins were transferred using iBlot 2 Transfer Stacks. The membranes were blocked with 5% nonfat milk in TBS-T buffer (50 mM Tris-HCL, pH 7.6; 150 mM NaCl; and 0.05% Tween) and probed with primary antibodies (1:1000 dilution) overnight at 4° C. After three washes with TBS-T (10 min/wash), the membranes were incubated with an appropriate peroxidase-conjugated secondary antibody (Cell Signaling Technology, USA) for 1 hour at rt. After three washes with TBS-T, the proteins of interest were detected with ECL Western Blotting Detection Reagents and captured with an Azure imaging system. The band intensities were determined using ImageJ software and normalized to loading control β-actin or GAPDH. The primary antibodies Bcl-xL (#2762), Bcl-2 (#2872s), Mcl-1 (#5453s) and β-actin (13E5, #4970), and GAPDH (#5174) were purchased from Cell Signaling Technology.

Bcl-xL [2] = target: T1, Bcl-xL; assay: Protein degradation assay in MOLT-4 cells (Western blot); parameters: host or cells: MOLT-4; details: 100 nM compound, 16 hours, FIGS. 4 and 5
Method: as §1

Row | SMILES | IC50 (MOLT-4 cells) [nM] | Bcl-xL degradation in MOLM-13 cells (Bcl-xL [1]) | Bcl-xL degradation with proteasome inhibitor MG132 in MOLM-13 cells (Bcl-xL [1]) | Bcl-xL degradation in MOLT-4 cells (Bcl-xL [2])
1 | CC1(C)CCC(c2ccc(Cl)cc2)=C(CN2CCN(c3ccc(C(=O)NS(=O)(=O)c4ccc(N[C@H](CCN5CCOCC5)CSc5ccccc5)c(S(=O)(=O)C(F)(F)F)c4)cc3)CC2)C1 [ABT-263, reference compound] | 100 to 200 | – | – | –
2 | CC1(C)CCC(CN2CCN(c3ccc(C(=O)NS(=O)(=O)c4ccc(N[C@H](CCN5CCN(C(=O)NCCOCCOCCNc6cccc7c6C(=O)N(C6CCC(=O)NC6=O)C7=O)CC5)CSc5ccccc5)c(S(=O)(=O)C(F)(F)F)c4)cc3)CC2)=C(C23CC(C(F)F)(C2)C3)C1 (stereo partly drawn) [Example 1, 4-((R)-3-((4-(N-(4-(4-((2-(3-(difluoromethyl)bicyclo[1.1.1]pentan-1-yl)-4,4-dimethylcyclohex-1-en-1-yl)methyl)piperazin-1-yl)benzoyl)sulfamoyl)-2-((trifluoromethyl)sulfonyl)phenyl)amino)-4-(phenylthio)butyl)-N-(2-(2-(2-((2-(2,6-dioxopiperidin-3-yl)-1,3-dioxoisoindolin-4-yl)amino)ethoxy)ethoxy)ethyl)piperazine-1-carboxamide] | ≥ 200 | – | – | –
3 | CC1(C)CCC(CN2CCN(c3ccc(C(=O)NS(=O)(=O)c4ccc(N[C@H](CCN5CCN(CCOCCNc6cccc7c6C(=O)N(C6CCC(=O)NC6=O)C7=O)CC5)CSc5ccccc5)c(S(=O)(=O)C(F)(F)F)c4)cc3)CC2)=C(C23CC(C(F)F)(C2)C3)C1 (stereo partly drawn) [Example 2, 4-(4-((2-(3-(Difluoromethyl)bicyclo[1.1.1]pentan-1-yl)-4,4-dimethylcyclohex-1-en-1-yl)methyl)piperazin-1-yl)-N-((4-(((2R)-4-(4-(2-(2-((2-(2,6-dioxopiperidin-3-yl)-1,3-dioxoisoindolin-4-yl)amino)ethoxy)ethyl)piperazin-1-yl)-1-(phenylthio)butan-2-yl)amino)-3-((trifluoromethyl)sulfonyl)phenyl)sulfonyl)benzamide] | ≤ 100 | can induce Bcl-xL degradation in MOLM-13 cells in a dose dependent manner | can be inhibited by proteasome inhibitor MG132 | induce Bcl-xL degradation
4 | CC1(C)CCC(CN2CCN(c3ccc(C(=O)NS(=O)(=O)c4ccc(N[C@H](CCN5CCN(CCOCCOCCNc6cccc7c6C(=O)N(C6CCC(=O)NC6=O)C7=O)CC5)CSc5ccccc5)c(S(=O)(=O)C(F)(F)F)c4)cc3)CC2)=C(C23CC(C(F)F)(C2)C3)C1 (stereo partly shown) [Example 3] | – | can induce Bcl-xL degradation in MOLM-13 cells in a dose dependent manner | can be inhibited by proteasome inhibitor MG132 | –
5 | CC1(C)CCC(CN2CCN(c3ccc(C(=O)NS(=O)(=O)c4ccc(N[C@H](CCN5CCN(CCOCCOCCOCCNc6cccc7c6C(=O)N(C6CCC(=O)NC6=O)C7=O)CC5)CSc5ccccc5)c(S(=O)(=O)C(F)(F)F)c4)cc3)CC2)=C(C23CC(C(F)F)(C2)C3)C1 (stereo partly drawn) [Example 4, 4-(4-((2-(3-(difluoromethyl)bicyclo[1.1.1]pentan-1-yl)-4,4-dimethylcyclohex-1-en-1-yl)methyl)piperazin-1-yl)-N-((4-(((2R)-4-(4-(2-(2-(2-(2-((2-(2,6-dioxopiperidin-3-yl)-1,3-dioxoisoindolin-4-yl)amino)ethoxy)ethoxy)ethoxy)ethyl)piperazin-1-yl)-1-(phenylthio)butan-2-yl)amino)-3-((trifluoromethyl)sulfonyl)phenyl)sulfonyl)benzamide] | ≤ 100 | – | can be inhibited by proteasome inhibitor MG132 | induce Bcl-xL degradation
6 | CC1(C)CCC(CN2CCN(c3ccc(C(=O)NS(=O)(=O)c4ccc(N[C@H](CCN5CCC(C(=O)NCCOCCOCCNc6cccc7c6C(=O)N(C6CCC(=O)NC6=O)C7=O)CC5)CSc5ccccc5)c(S(=O)(=O)C(F)(F)F)c4)cc3)CC2)=C(C23CC(C(F)F)(C2)C3)C1 (stereo partly drawn) [Example 5, 1-((R)-3-((4-(N-(4-(4-((2-(3-(difluoromethyl)bicyclo[1.1.1]pentan-1-yl)-4,4-dimethylcyclohex-1-en-1-yl)methyl)piperazin-1-yl)benzoyl)sulfamoyl)-2-((trifluoromethyl)sulfonyl)phenyl)amino)-4-(phenylthio)butyl)-N-(2-(2-(2-((2-(2,6-dioxopiperidin-3-yl)-1,3-dioxoisoindolin-4-yl)amino)ethoxy)ethoxy)ethyl)piperidine-4-carboxamide] | 100 to 200 | – | – | induce Bcl-xL degradation
7 | CC1(C)CCC(CN2CCN(c3ccc(C(=O)NS(=O)(=O)c4ccc(N[C@H](CCN5CCN(CCOCCNc6ccc7c(c6)C(=O)N(C6CCC(=O)NC6=O)C7=O)CC5)CSc5ccccc5)c(S(=O)(=O)C(F)(F)F)c4)cc3)CC2)=C(C23CC(C(F)F)(C2)C3)C1 (stereo partly drawn) [Example 6, 4-(4-((2-(3-(Difluoromethyl)bicyclo[1.1.1]pentan-1-yl)-4,4-dimethylcyclohex-1-en-1-yl)methyl)piperazin-1-yl)-N-((4-(((2R)-4-(4-(2-(2-((2-(2,6-dioxopiperidin-3-yl)-1,3-dioxoisoindolin-5-yl)amino)ethoxy)ethyl)piperazin-1-yl)-1-(phenylthio)butan-2-yl)amino)-3-((trifluoromethyl)sulfonyl)phenyl)sulfonyl)benzamide] | ≤ 100 | – | – | induce Bcl-xL degradation
8 | CC1(C)CCC(CN2CCN(c3ccc(C(=O)NS(=O)(=O)c4ccc(N[C@H](CCN5CCN(CCOCCNc6cccc7c6C(=O)N(C6CCC(=O)NC6=O)C7=O)CC5)CSc5ccccc5)c(S(=O)(=O)C(F)(F)F)c4)cc3)CC2)=C(C23CC(C)(C2)C3)C1 (stereo partly drawn) [Example 9, 4-(4-((4,4-Dimethyl-2-(3-methylbicyclo[1.1.1]pentan-1-yl)cyclohex-1-en-1-yl)methyl)piperazin-1-yl)-N-((4-(((2R)-4-(4-(2-(2-((2-(2,6-dioxopiperidin-3-yl)-1,3-dioxoisoindolin-4-yl)amino)ethoxy)ethyl)piperazin-1-yl)-1-(phenylthio)butan-2-yl)amino)-3-((trifluoromethyl)sulfonyl)phenyl)sulfonyl)benzamide] | ≤ 100 | – | – | induce Bcl-xL degradation
9 | CC1(C)CCC(CN2CCN(c3ccc(C(=O)NS(=O)(=O)c4ccc(N[C@H](CCN5CCN(CCOCCOCCOCCNc6cccc7c6C(=O)N(C6CCC(=O)NC6=O)C7=O)CC5)CSc5ccccc5)c(S(=O)(=O)C(F)(F)F)c4)cc3)CC2)=C(C23CC(C)(C2)C3)C1 (stereo partly drawn) [Example 10, 4-(4-((4,4-dimethyl-2-(3-methylbicyclo[1.1.1]pentan-1-yl)cyclohex-1-en-1-yl)methyl)piperazin-1-yl)-N-((4-(((2R)-4-(4-(2-(2-(2-(2-((2-(2,6-dioxopiperidin-3-yl)-1,3-dioxoisoindolin-4-yl)amino)ethoxy)ethoxy)ethoxy)ethyl)piperazin-1-yl)-1-(phenylthio)butan-2-yl)amino)-3-((trifluoromethyl)sulfonyl)phenyl)sulfonyl)benzamide] | ≤ 100 | – | – | induce Bcl-xL degradation
